In patent publication US9708293B2, “N-(pyridin-2-yl)pyrimidin-4-amine derivatives containing a sulfone group” (BAYER PHARMA AKTIENGESELLSCHAFT, priority 2012, dated 2017) one finds IC50 data, which are given here for four molecules.

Molecules are shown by their SMILES.

The test system of assay [1] is HeLa-MaTu-ADR cells. Description: Proliferation assay, HeLa-MaTu-ADR. It is filed as cell-based. The conditions noted are these: Homo sapiens, 96 h; 4 days, crystal violet; read-out: Inhibition of HeLa-MaTu-ADR cell proliferation IC50. The method, then:
Cultivated tumour cells (HeLa, human cervical tumour cells, ATCC CCL-2; NCI-H460, human non-small cell lung carcinoma cells, ATCC HTB-177; A2780, human ovarian carcinoma cells, ECACC #93112519; DU 145, hormone-independent human prostate carcinoma cells, ATCC HTB-81; HeLa-MaTu-ADR, multidrug-resistant human cervical carcinoma cells, EPO-GmbH Berlin; Caco-2, human colorectal carcinoma cells, ATCC HTB-37; B16F10, mouse melanoma cells, ATCC CRL-6475) were plated at a density of 5,000 cells/well (DU145, HeLa-MaTu-ADR), 3,000 cells/well (NCI-H460, HeLa), 2,500 cells/well (A2780), 1,500 cells/well (Caco-2), or 1,000 cells/well (B16F10) in a 96-well multititer plate in 200 μL of their respective growth medium supplemented 10% fetal calf serum. After 24 hours, the cells of one plate (zero-point plate) were stained with crystal violet (see below), while the medium of the other plates was replaced by fresh culture medium (200 μl), to which the test substances were added in various concentrations (0 μM, as well as in the range of 0.001-10 μM; the final concentration of the solvent dimethyl sulfoxide was 0.5%). The cells were incubated for 4 days in the presence of test substances. Cell proliferation was determined by staining the cells with crystal violet: the cells were fixed by adding 20 μl/measuring point of an 11% glutaric aldehyde solution for 15 minutes at room temperature. After three washing cycles of the fixed cells with water, the plates were dried at room temperature. The cells were stained by adding 100 μl/measuring point of a 0.1% crystal violet solution (pH 3.0). After three washing cycles of the stained cells with water, the plates were dried at room temperature. The dye was dissolved by adding 100 μl/measuring point of a 10% acetic acid solution. The extinction was determined by photometry at a wavelength of 595 nm. The change of cell number, in percent, was calculated by normalization of the measured values to the extinction values of the zero-point plate (=0%) and the extinction of the untreated (0 μm) cells (=100%). […]

In assay [2] the target is T1, CDK9/CycT1 (Homo sapiens, UniProt P50750).
T1 construct: Recombinant full-length His-tagged human CDK9 and CycT1; His; purchased Invitrogen PV4131; host or cells: insect cells
T1 sequence (P50750 whole entry): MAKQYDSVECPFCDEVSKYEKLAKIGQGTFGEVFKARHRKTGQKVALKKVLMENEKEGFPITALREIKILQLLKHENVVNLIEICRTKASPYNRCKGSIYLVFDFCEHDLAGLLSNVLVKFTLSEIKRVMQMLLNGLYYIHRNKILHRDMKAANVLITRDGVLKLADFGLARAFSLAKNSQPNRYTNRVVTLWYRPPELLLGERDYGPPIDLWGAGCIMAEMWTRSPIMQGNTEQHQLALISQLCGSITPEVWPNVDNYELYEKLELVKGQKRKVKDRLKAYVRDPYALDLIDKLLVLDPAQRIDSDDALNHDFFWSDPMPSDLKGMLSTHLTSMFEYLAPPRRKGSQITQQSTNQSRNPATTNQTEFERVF
T1 sequence (O60563 whole entry partner): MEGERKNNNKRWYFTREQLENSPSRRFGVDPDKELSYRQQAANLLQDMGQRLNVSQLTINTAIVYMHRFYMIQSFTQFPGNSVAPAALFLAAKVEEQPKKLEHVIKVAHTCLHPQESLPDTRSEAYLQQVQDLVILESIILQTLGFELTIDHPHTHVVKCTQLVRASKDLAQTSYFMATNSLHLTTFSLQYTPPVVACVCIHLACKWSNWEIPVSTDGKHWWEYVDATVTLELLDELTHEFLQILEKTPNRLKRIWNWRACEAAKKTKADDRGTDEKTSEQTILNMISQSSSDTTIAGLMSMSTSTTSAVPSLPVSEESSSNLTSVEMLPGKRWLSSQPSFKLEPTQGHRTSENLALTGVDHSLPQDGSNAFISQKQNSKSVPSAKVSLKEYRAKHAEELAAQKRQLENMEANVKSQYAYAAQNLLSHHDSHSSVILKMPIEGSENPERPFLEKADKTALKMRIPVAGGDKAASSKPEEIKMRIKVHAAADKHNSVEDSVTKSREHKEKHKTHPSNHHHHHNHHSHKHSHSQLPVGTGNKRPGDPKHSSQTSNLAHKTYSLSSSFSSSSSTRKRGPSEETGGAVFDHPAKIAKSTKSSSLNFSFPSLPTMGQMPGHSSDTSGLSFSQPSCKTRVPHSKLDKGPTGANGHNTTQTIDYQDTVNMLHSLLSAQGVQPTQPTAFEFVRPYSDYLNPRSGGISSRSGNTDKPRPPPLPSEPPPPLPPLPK
Description: CDK9/CycT1 high ATP kinase assay (Method 1b). It is filed as biochemical. The settings on record: 2 mM ATP. The method, then:
1b. CDK9/CycT1 High ATP Kinase Assay
CDK9/CycT1-inhibitory activity of compounds of the present invention at a high ATP concentration after preincubation of enzyme and test compounds was quantified employing the CDK9/CycT1 TR-FRET assay as described in the following paragraphs.
Recombinant full-length His-tagged human CDK9 and CycT1, expressed in insect cells and purified by Ni-NTA affinity chromatography, were purchase from Invitrogen (Cat. No PV4131). As substrate for the kinase reaction biotinylated peptide biotin-Ttds-YISPLKSPYKISEG (C-terminus in amid form) was used which can be purchased e.g. form the company JERINI peptide technologies (Berlin, Germany). For the assay 50 n1 of a 100 fold concentrated solution of the test compound in DMSO was pipetted into a black low volume 384 well microtiter plate (Greiner Bio-One, Frickenhausen, Germany), 2 μl of a solution of CDK9/CycT1 in aqueous assay buffer [50 mM Tris/HCl pH 8.0, 10 mM MgCl2, 1.0 mM dithiothreitol, 0.1 mM sodium ortho-vanadate, 0.01% (v/v) Nonidet-P40 (Sigma)] were added and the mixture was incubated for 15 min at 22° C. to allow pre-binding of the test compounds to the enzyme before the start of the kinase reaction. Then the kinase reaction was started by the addition of 3 μl of a solution of adenosine-tri-phosphate (ATP, 3.3 mM=>final conc. in the 5 μl assay volume is 2 mM) and substrate (1.67 μM=>final conc. in the 5 μl assay volume is 1 μM) in assay buffer and the resulting mixture was incubated for a reaction time of […] at 22° C. The concentration of CDK9/CycT1 was adjusted depending of the activity of the enzyme lot and was chosen appropriate to have the assay in the linear range, typical concentrations were in the range of 0.5 μg/mL. The reaction was stopped by the addition of 5 μl of a solution of TR-FRET detection reagents (0.2 μM streptavidine-XL665 [Cisbio Bioassays, Codolet, France] and 1 nM anti-RB(pSer807/pSer811)-antibody from BD Pharmingen [#558389] and 1.2 nM LANCE EU-W1024 labeled anti-mouse IgG antibody [Perkin-Elmer, product no. AD0077]) in an aqueous EDTA-solution (100 mM EDTA, 0.2% (w/v) bovine serum albumin in 100 mM HEPES/NaOH pH 7.0).
The resulting mixture was incubated 1 h at 22° C. to allow the formation of complex between the phosphorylated biotinylated peptide and the detection reagents. Subsequently the amount of phosphorylated substrate was evaluated by measurement of the resonance energy transfer from the Eu-chelate to the streptavidine-XL. Therefore, the fluorescence emissions at 620 nm and 665 nm after excitation at 350 nm was measured in a HTRF reader, e.g. a Rubystar (BMG Labtechnologies, Offenburg, Germany) or a Viewlux (Perkin-Elmer). The ratio of the emissions at 665 nm and at […] was taken as the measure for the amount of phosphorylated substrate. […]

Turning to `COc1cc(F)ccc1-c1cc(Nc2cc(CS(C)(=O)=O)cc(C(F)(F)F)n2)ncn1` [Example 3, 6-(4-Fluoro-2-methoxyphenyl)-N-{4-[(methylsulfonyl)methyl]-6-(trifluoromethyl)pyridin-2-yl}pyrimidin-4-amine], the IC50 worked out at 33 nM in assay [1] and 2 nM in assay [2].

In assay [2], `COc1cc(F)ccc1-c1cc(Nc2cc(CS(C)(=O)=O)cc(F)n2)ncn1` [Example 4, 6-(4-Fluoro-2-methoxyphenyl)-N-{6-fluoro-4-[(methylsulfonyl)methyl]pyridin-2-yl}pyrimidin-4-amine] showed an IC50 of 11 nM.

For `COc1cc(F)ccc1-c1cc(Nc2cc(CS(C)(=O)=O)cc(C)n2)ncn1` [Example 2, 6-(4-Fluoro-2-methoxyphenyl)-N-{6-methyl-4-[(methylsulfonyl)methyl]pyridin-2-yl}pyrimidin-4-amine], the values for the IC50 in assay [1] and in assay [2] were 54 nM and 2 nM, respectively.

As for `COc1cc(F)ccc1-c1cc(Nc2cc(CS(C)(=O)=O)ccn2)ncn1` [Example 1, 6-(4-Fluoro-2-methoxyphenyl)-N-{4-[(methylsulfonyl)methyl]pyridin-2-yl}pyrimidin-4-amine], the IC50 in assay [1] was determined as 212 nM; in assay [2], 16 nM.
